The text below walks through data of paper PMC11800161 (ACS Omega, 2025).

pIC50: −log10 of the molar value. In brackets after ≈: the same amount, converted by molar mass.

The test system of data set [1] is S. faecalis (MTCC- 0459). As to the kind of experiment: Broth microdilution MIC/MBC, S. faecalis. The format is cell-based, Streptococcus faecalis. The following applies: for MIC: Enterococcus faecalis, MTCC0459; for antibacterial potency relative to penicillin G (times greater): by MIC, organism not named in the sentence (values match S. faecalis).
Data set [2] has as its system Saccharomyces cerevisiae (ATCC-9763). As to the kind of experiment: Broth microdilution MIC/MFC, S. cerevisiae. The format is cell-based. The following applies: ATCC9763. On the technique in general: Dilution methods test growth across graded concentrations, often in twofold steps.
In data set [3] the test system is Bacillus pumilis (MTCC- 2296). The data set can be described thus: Broth microdilution MIC/MBC, B. pumilis. The note with it: for potency relative to penicillin G (times greater): B. pumilis, by MIC; for MIC: Bacillus, MTCC2296. The format is cell-based.
Data set [4] relates to hemolytic activity of E. coli. The data set can be described thus: Hemolysin inhibition assay, E. coli. The format is cell-based. The note with it: at 75%MBC, control 100% hemolysis.
Data set [5] deals with hemolytic activity of S. faecalis. As to the kind of experiment: Hemolysin inhibition assay, S. faecalis. The note with it: at 75%MBC, control 100% hemolysis. The format is cell-based.
Data set [6] concerns E. coli (ATCC- 25955). As to the kind of experiment: microbe, parasite or virus in culture. The format is cell-based. The following applies: Escherichia coli, ATCC25955.
The target of data set [7] is E. coli MurA (Escherichia coli, UniProt P0A749). As to the kind of experiment: MurA enzyme inhibition assay. The format is biochemical.
In data set [8] the test system is Enterobacter cloacae (ATCC- 23355). The format is cell-based. The note with it: E. cloacae.
Data set [9] concerns Candida albicans (ATCC-10231). As to the kind of experiment: Broth microdilution MIC/MFC, C. albicans. The following applies: ATCC10231. The format is cell-based.

Sequence of E. coli MurA (P0A749 whole entry): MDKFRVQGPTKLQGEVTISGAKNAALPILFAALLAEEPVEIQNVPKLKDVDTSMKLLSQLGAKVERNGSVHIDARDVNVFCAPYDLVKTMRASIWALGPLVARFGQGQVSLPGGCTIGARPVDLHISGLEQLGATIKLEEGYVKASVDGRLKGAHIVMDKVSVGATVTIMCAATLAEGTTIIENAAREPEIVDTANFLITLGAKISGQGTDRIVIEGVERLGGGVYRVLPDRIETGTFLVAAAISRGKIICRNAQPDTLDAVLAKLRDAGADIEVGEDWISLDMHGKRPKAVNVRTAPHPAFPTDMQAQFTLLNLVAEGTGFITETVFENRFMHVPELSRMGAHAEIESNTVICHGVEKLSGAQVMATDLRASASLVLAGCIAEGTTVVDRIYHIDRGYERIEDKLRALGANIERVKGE

Regarding `Cc1ccc(N=Nc2c(N)nn3c(-c4ccc(Cl)cc4Cl)cc(-c4ccc(OCc5ccccc5)cc4)nc23)cc1` [Compound 4e, 5-(4-(Benzyloxy)phenyl)-7-(2,4-dichlorophenyl)-3-(p-tolyldiazenyl)pyrazolo[1,5-a]pyrimidin-2-amine], in data set [1], the MIC came out at 7.81 µg/mL (≈ 13.5 µM) and the “antibacterial potency relative to penicillin G (times greater)” value is given as 4 times.
Turning to `Cc1ccc(N=Nc2c(N)nn3c(-c4ccco4)cc(-c4ccc(OCc5ccccc5)cc4)nc23)cc1` [Compound 4h, 5-(4-(Benzyloxy)phenyl)-7-(furan-2-yl)-3-(p-tolyldiazenyl)pyrazolo[1,5-a]pyrimidin-2-amine], the MIC in data set [2] stood at 15.6 µg/mL (≈ 31.2 µM); in [3] it was 3.91 µg/mL (≈ 7.81 µM); in [1], 15.6 µg/mL (≈ 31.2 µM). Further, the “potency relative to penicillin G (times greater)” value in data set [3] was determined as 16 fold.
`COc1ccc(N=Nc2c(N)nn3c(-c4ccc(C)cc4)cc(-c4ccc(OCc5ccccc5)cc4)nc23)cc1` [Compound 4c, 5-(4-(Benzyloxy)phenyl)-3-((4-methoxyphenyl)diazenyl)-7-(p-tolyl)pyrazolo[1,5-a]pyrimidin-2-amine]: the hemolysis in data set [4] was found to be 7.1%; in data set [5] it was 3.3%. Besides, the “potency relative to penicillin G (times greater)” value in data set [3] was determined as 8 fold. In addition, the MIC in data set [3] amounted to 7.81 µg/mL (≈ 14.4 µM); in [1], 15.6 µg/mL (≈ 28.9 µM); in data set [6], 1.95 µg/mL (≈ 3.61 µM).
The term pIC50 denotes the IC50 on a negative log10 scale, so that one unit is a factor of ten. Read a low pIC50 as a high IC50. In data set [7], `C[C@@H]1O[C@@H]1P(=O)(O)O` [fosfomycin, Fosfomycin] gave a pIC50 of 4.16.
`COc1ccc(N=Nc2c(N)nn3c(-c4ccc(Cl)cc4Cl)cc(-c4ccc(OCc5ccccc5)cc4)nc23)cc1` [Compound 4f, 5-(4-(Benzyloxy)phenyl)-7-(2,4-dichlorophenyl)-3-((4-methoxyphenyl)diazenyl)pyrazolo[1,5-a]pyrimidin-2-amine]: in data set [3], the “potency relative to penicillin G (times greater)” value was 8 fold and the MIC stood at 7.81 µg/mL (≈ 13.1 µM). Besides, the MIC in [1] stood at 15.6 µg/mL (≈ 26.2 µM).
Take `Nc1nn2c(-c3ccco3)cc(-c3ccc(OCc4ccccc4)cc3)nc2c1N=Nc1ccc(F)cc1` [Compound 4g, 5-(4-(Benzyloxy)phenyl)-3-((4-fluorophenyl)diazenyl)-7-(furan-2-yl)pyrazolo[1,5-a]pyrimidin-2-amine]: in data set [3], the “potency relative to penicillin G (times greater)” value amounted to 16 fold and the MIC amounted to 3.91 µg/mL (≈ 7.75 µM). In data set [1], the MIC was found to be 1.95 µg/mL (≈ 3.87 µM) and the “antibacterial potency relative to penicillin G (times greater)” value was 16 times.
`Cc1ccc(-c2cc(-c3ccc(OCc4ccccc4)cc3)nc3c(N=Nc4ccc(F)cc4)c(N)nn23)cc1` [Compound 4a, 5-(4-(Benzyloxy)phenyl)-3-((4-fluorophenyl)diazenyl)-7-(p-tolyl)pyrazolo[1,5-a]pyrimidin-2-amine]: in [1], the MIC amounted to 3.91 µg/mL (≈ 7.4 µM) and the “antibacterial potency relative to penicillin G (times greater)” value turned out to be 8 times.
Take `Cc1ccc(N=Nc2c(N)nn3c(-c4ccc(C)cc4)cc(-c4ccc(OCc5ccccc5)cc4)nc23)cc1` [Compound 4b, 5-(4-(Benzyloxy)phenyl)-7-(p-tolyl)-3-(p-tolyldiazenyl)pyrazolo[1,5-a]pyrimidin-2-amine]: in data set [3], the “potency relative to penicillin G (times greater)” value is listed as 4 fold. The MIC in [3] came to 15.6 µg/mL (≈ 29.7 µM); in [1] it was 15.6 µg/mL (≈ 29.7 µM); in [6], 1.95 µg/mL (≈ 3.72 µM).
As to `Nc1nn2c(-c3ccc(Cl)cc3Cl)cc(-c3ccc(OCc4ccccc4)cc3)nc2c1N=Nc1ccc(F)cc1` [Compound 4d, 5-(4-(Benzyloxy)phenyl)-7-(2,4-dichlorophenyl)-3-((4-fluorophenyl)diazenyl)pyrazolo[1,5-a]pyrimidin-2-amine], the MIC in data set [2] is 15.6 µg/mL (≈ 26.7 µM).
Take `COc1ccc(N=Nc2c(N)nn3c(-c4ccco4)cc(-c4ccc(OCc5ccccc5)cc4)nc23)cc1` [Compound 4i, 5-(4-(Benzyloxy)phenyl)-7-(furan-2-yl)-3-((4-methoxyphenyl)diazenyl)pyrazolo[1,5-a]pyrimidin-2-amine]: the MBC/MIC in data set [8] turned out to be 8. In addition, in data set [9], the MIC turned out to be 15.6 µg/mL (≈ 30.2 µM). In addition, in data set [3], the “potency relative to penicillin G (times greater)” value came to 4 fold and the MIC came to 15.6 µg/mL (≈ 30.2 µM).
On to `CC1(C)S[C@@H]2[C@H](NC(=O)Cc3ccccc3)C(=O)N2[C@H]1C(=O)O` [Penicillin G, penicillin G, reference compound], for which the MIC came to 62.5 µg/mL (≈ 187 µM) in [3] and 31.5 µg/mL (≈ 94.2 µM) in [1].
